Measurements reported in US12059428B2, “Methods of treating tumor metastasis” (TARIS Biomedical LLC, priority 2017, dated 2024).
Entries after “also recorded” stand apart in the source; their conditions may differ.

How the values were obtained:
TNF-α = TNF-α levels in rats inoculated with NBTII bladder tumors; assay type: in vivo, rat; details: FIG. 10
Description: (§1) IL-10 increases associated with acute treatment are known to facilitate T cell mediated antitumor effects.

[1] = system: subcutaneous NBTII tumors; assay: Bladder and flank NBTII tumor model, subcutaneous tumor volume by caliper (Example 1); assay type: in vivo, rat
Description: Standardized bladder perfusion system was modified to introduce bladder and subcutaneous tumors. The bladders were first surgically cannulated by placing a catheter into the bladder, fixed in place using a suture, the free end exteriorized between the scapulae.
The animals were allowed to heal. Bladder tumors were established by injecting tumor cell suspension directly into bladder wall. Subcutaneous tumor was established by injecting tumor cell suspension under skin abdominal flank.
The bladder and flank tumor model used in this study utilized immunocompetent Wistar rats, 7 to 8 weeks in age and weighing between 150 to 200 g. The bladders were first surgically cannulated by placing a P50 catheter into the bladder dome which was fixed in place using a purse string suture and the free end exteriorized between the scapulae. […] Per study protocol, different groups of bladder cannulated rats were next inoculated with NBTII tumor cells (Nara Bladder Tumor No. 2; ATCC® CRL1655™). This is a rat syngeneic bladder tumor cell line originally derived from tumors induced with N-butyl-N-(4-hydroxybutyl) nitrosamine. In certain treatment groups, the tumor cells were injected directly into the bladder wall as a 50 uL cell suspension of approximately 2×10^6 cells. […]
Group 4 (SCT with BT, N=10) animal bladders were cannulated on study Day 0 and on study Day 4 both the bladder and abdominal flank were inoculated with NBTII tumor cells. Gemcitabine HCl in PBS (180 ug/mL) was perfused via the cannula into the bladder beginning on study Day 6 at a constant rate of 0.3 mL per hour for 5 days and again beginning on Day 20 for an additional 5 day treatment period.
Subcutaneous tumor volumes were serially measured post inoculation every two or three days using a caliper method.

[2] = system: subcutaneous NBTII tumors; assay: Bladder cannulated rats with only subcutaneous NBTII tumors, no bladder tumor (Example 4); assay type: in vivo, rat; details: two perfusion cycles, FIG. 7
Procedure: To confirm the observed effects on subcutaneous tumor growth is the result of the local action of intravesical gemcitabine on bladder tumors, an additional series of experiments were completed in which bladder cannulated rats were implanted with only subcutaneous NBTII tumors. The animals were then treated with two perfusion cycles of intravesical gemcitabine as in the previous experiments. […] These findings both confirm the presence of a bladder tumor is required and the observed reductions in subcutaneous tumors are mediated immunologically.

[3] = system: subcutaneous NBTII tumors; assay: Varying gemcitabine bladder exposure, simultaneously implanted bladder and subcutaneous NBTII tumors (Example 3); assay type: in vivo, rat; details: perfusion 45 and 90 μg/ml, nominal urine 10 and 20 μg/ml, FIG. 6
Description: Extending the investigation described in EXAMPLE 1, additional studies of NBTII bladder and subcutaneous tumors evaluated the effect of varying gemcitabine bladder exposures with and without simultaneous bladder tumor implantation.
In one set of experiments, gemcitabine perfusion concentrations were varied to evaluate the effect of differing bladder tumor exposures on subcutaneous tumor growth rates. Bladder cannulated rats (n=10 per treatment group) with simultaneously implanted bladder and subcutaneous NBTII tumors were studied over two treatment cycles, each separated by a 7-day drug free period, as used in the EXAMPLE 1 study.
Gemcitabine perfusion concentrations of 45 μg/ml and 90 μg/ml were tested, producing nominal urine concentrations of 10 μg/ml and 20 μg/ml respectively, representing […] reductions vs the original study gemcitabine urine concentrations. Subcutaneous tumor growth was measured during the study as previously.

[4] = system: tumor T regulatory cells to T effector cells; assay: Flow cytometric immunocyte analysis of residual NBTII bladder tumors; assay type: in vivo, rat; details: residual NBTII tumors from immunocompetent rats
Procedure: (§2) The direct effects of low dose gemcitabine were studied in athymic rats with human derived MIBC cells, T24-TurboFP635, injected into the bladder. After 3 days tumor growth, gemcitabine or vehicle was perfused into the bladder over 5 days, yielding nominal urine concentrations of 0, 20, 40, or 80 ug/ml gemcitabine, N=6 per group. Tumor bioluminescence was measured on day 5. A companion study in immunocompetent rats inoculated with syngeneic NBTII bladder tumors, provided tumors for immunocyte analysis.

[5] = system: T24-TurboFP635 human derived MIBC cells; assay: Bladder tumor bioluminescence in athymic rats with T24-TurboFP635 cells injected into the bladder; assay type: in vivo, rat; details: for reduction in bladder tumor bioluminescence vs control: athymic rats, 5-day perfusion, day 5
Procedure: as §2

[6] = system: activated CD4 and CD8 cells in the spleen; assay: Activated CD4 and CD8 cells in the spleen by flow cytometry, NBT-II tumor rats; assay type: in vivo, rat; details: vs untreated tumor rats, FIG. 11
Procedure: Rats were inoculated with NBT-II tumors and the number of activated CD4 and CD8 cells in the spleen was assessed by flow cytometry either in rats treated with intravesicular gemcitabine or untreated rats. […] Intravesicular gemcitabine increased the percentage of activated CD4 and CD8 cells, thus indicating activation of the immune system against the tumor.

[7] = Gemcitabine urine concentration during intravesicular perfusion; assay type: in vivo, rat; details: intravesicular perfusion of 180 ug/ml solution
IL-10 = IL-10 levels in rats inoculated with NBTII bladder tumors; assay type: in vivo, rat; details: spleens of treated animals, FIG. 9
Description: as §1

[8] = prior studies in animals and humans; cited from earlier work
NBTII tumor cells = assay: Bladder tumor growth after inoculation with NBTII tumor cells; assay type: in vivo, rat; details: average urine concentration 40 ug/mL
TGF-β = assay: Circulating TGF-β in rats inoculated with NBTII bladder tumors; assay type: in vivo, rat; details: low concentration intravesical perfusion, FIG. 8
Description: TGF-β drives Treg cell expression which in turn suppresses both local and systemic CD4 and CD8 T cell response against the bladder tumor.

[9] = system: CD4+FOXP3+ and CD8+FOXP3+ regulatory T cells; assay: Splenic regulatory T cells by flow cytometry, NBT-II tumor rats; assay type: in vivo, rat; details: vs untreated tumor rats, FIG. 12
Description: The percentage splenic of regulatory T cells was assed using flow cytometry. […] Intravesicular gemcitabine increased the percentage of activated Cn both CD4+FOXP3+ and CD8+FOXP3+ regulatory T cells, thus indicating activation of the systemic immune system against the tumor.

NBTII flank tumors = assay: Gemcitabine immunogenicity study, NBTII bladder and flank tumors (Example 2); assay type: in vivo, rat
Description: Gemcitabine immunogenicity was studied in immunocompetent rats with NBTII cells injected into the bladder and subcutaneous flank tissue; flank tumors were implanted either simultaneously with bladder tumors or 14 days after bladder tumor injection. Control groups received only flank tumors, N=15, or bladder and flank tumors with vehicle perfusion, N=10. […]

[10] = rats with concomitant bladder tumors

With `Nc1ccn([C@@H]2O[C@H](CO)[C@@H](O)C2(F)F)c(=O)n1` [gemcitabine, 2′,2′-difluorodeoxycytidine] the TNF-α level (TNF-α) was “moderately increased”, the “subcutaneous tumor volume during second 5-day intravesical perfusion” value ([1]; Group 3 (SCT after BT): subcutaneous tumor implanted Day 17 after first perfusion, 180 ug/mL) was “all subcutaneous tumors were undetectable by palpation; also recorded: immediately declined in tumor volume until the tumors were no longer detectable” and the “eradication of subcutaneous tumors upon retreatment” value ([1]; Group 3 and 4 combined, two 5-day cycles of 180 ug/mL) was “complete eradication of all but one subcutaneous tumor”. For the same compound, the “subcutaneous tumor volume after second 5-day intravesical treatment” value ([1]; Group 4 (SCT with BT), 180 ug/mL, second cycle from Day 20) was “all but one tumor was undetectable by palpation”, the “subcutaneous tumor growth over the 7-day drug free period” value ([1]; Group 4 (SCT with BT), after first 5-day perfusion of 180 ug/mL) was “failed to return to their initial growth rate” and the “subcutaneous tumor growth by the end of the first intravesical perfusion period” value ([1]; Group 4 (SCT with BT): bladder and subcutaneous tumors Day 4, 180 ug/mL perfused 0.3 mL per hour for 5 days) was “dramatically slowed or fully arrested; also recorded: continued to grow for several days prior to arresting”. The “subcutaneous tumor growth in rats without bladder tumor” value [2] was “continued to grow throughout both treatment cycles”, the “subcutaneous tumor volume at reduced urine concentrations” value [3] was “dose related reduction in subcutaneous tumor volume” and the “subcutaneous tumor volume during the second treatment cycle” value [3] was “significantly decreased to near ablation”. The “decrease in the proportion of tumor T regulatory cells to T effector cells” value [4] was 85.2%, the “reduction in bladder tumor bioluminescence vs control” value (shortened to “reduction”) ([5]; nominal urine concentration 20 ug/ml) was 47.6% and the “reduction” value ([5]; nominal urine concentration 40 ug/ml) was 70.5%. For the same compound, the “reduction” value ([5]; nominal urine concentration 80 ug/ml) was 91.2%, the “bladder tumor growth after inoculation with T24 tumor cells” value ([5]; average urine concentration 40 ug/mL) was “significantly reduce bladder tumor growth” and the “percentage of activated CD4 cells in the spleen” value [6] was “increased”. The “percentage of activated CD8 cells in the spleen” value [6] was “increased”, the “average gemcitabine urine concentration” value [7] was 40 µg/mL and the IL-10 levels (IL-10) was “increased IL-10 levels”. For the same compound, the “systemic drug concentrations after low concentrations of intravesical gemcitabine” value [8] was “do not produce therapeutic drug concentrations systemically”, the “bladder tumor growth after inoculation with NBTII tumor cells” value (NBTII tumor cells) was “significantly reduce bladder tumor growth” and the “circulating TGF-β plasma concentration” value (TGF-β) was “suppressed TGF-β production”. For the same compound, the “percentage of splenic CD4+FOXP3+ regulatory T cells” value [9] was “increased”, the “percentage of splenic CD8+FOXP3+ regulatory T cells” value [9] was “increased” and the “flank tumor growth arrest during the 7-day drug free period” value (NBTII flank tumors; 60 ug/ml group) was “this effect was maintained”. For the same compound, the “flank tumor response, implantation delayed to 3 days before the second perfusion” value (NBTII flank tumors; flank tumor implanted 14 days after bladder tumor) was “no tumor growth, but immediate tumor ablation”, the “flank tumor response to the second perfusion” value (NBTII flank tumors; flank tumors implanted simultaneously with bladder tumors) was “rapid flank tumor ablation in all but one animal” and the “flank tumor growth during the first perfusion cycle” value (NBTII flank tumors; [10]) was “fully arrested”. The “flank tumor size relative to controls during the first perfusion cycle” value (NBTII flank tumors; [10]) was 50 % of controls.
